# Patent US8378117B2 (priority 2005, dated 2013)
# Like-named read-outs stand apart in the source and are kept apart here.
# Experiments:
# CB1 receptor = target: T1, CB1 receptor (Homo sapiens, UniProt P21554); test: Binding assay for CB1 agonists or inverse agonists (SK-N-MC membranes, [3H]-CP-55,940); conditions: for inhibition at 1 µM: read-out: CB1 receptor binding percent inhibition, test concentration 1 μM (footnote 1)
# T1 construct: expressed in transfected cells
# Protocol: (§1) The human CB1 and CB2 receptors were stably expressed in SK-N-MC cells transfected with pcDNA3 CB-1 (human) or pcDNA3 CB-2 (human). The cells were grown in T-180 cell culture flasks under standard cell culture conditions at 37° C. in a 5% CO2 atmosphere. The cells were harvested by trysinization and homogenized in a homogenization buffer (10 mM Tris, 0.2 mM MgCl2, 5 mM KCl, with protease inhibitors aprotinin, leupeptin, pepstatin A and bacitracin) and centrifuged (2000 g). The supernatant was then centrifuged in 2M sucrose (31,300 g) to produce a semi-purified membrane pellet. The pellet was resuspended in homogenization and stored at −80° C.
# (§2) On the day of the assay, the pellet was thawed on ice and diluted in assay buffer (50 mM Tris-HCl, 5 mM MgCl2, 2.5 mM EDTA, 0.5 mg/mL fatty acid free bovine serum aldumin, pH 7.5). The diluted membrane pellet was added with buffer, either a test compound or vehicle standard and the radioligand [H]^3+-CP-55,940 (0.2 mM) to the wells of a 96-well polypropylene plate. Non-specific binding was measured in wells containing WIN 55,212 (10 uM). The plate was covered and incubated for 90 minutes at 30° C. The contents were then aspirated onto a Packard Unifilter GF/C filter bottom plate prewet with 0.5% polyethyleneimine. The wells of the polypropylene plate were rinsed and aspirated seven times with a 0.9% saline-0.5% Tween 20 solution. The Unifilter plate was dried, a scintillation cocktail was added to each well and the counts representing binding were quantitated in a TopCount scintillation counter.
# (§3) For compounds tested, an IC50 binding value was obtained from percent inhibition studies in which various test concentrations were used. The binding value was calculated by linear regression.
# CB2 receptor = target: T2, CB2 receptor (Homo sapiens, UniProt P34972); test: Binding assay for CB2 agonists or inverse agonists (SK-N-MC membranes, [3H]-CP-55,940)
# T2 construct: expressed in transfected cells
# Protocol: as §1
# as §2, with “The diluted membrane pellet was added with buffer, either a test compound or vehicle standard and the radioligand [H]^3+-CP-55,940 (0.2 mM) to the wells of a 96-well polypropylene plate. Non-specific binding was measured in wells containing WIN 55,212 (10 uM).” left out
# as §3
# [1] = read-out: CB1 receptor binding percent inhibition, test concentration 0.2 μM (footnote 2)
# [2] = test concentration 0.2 μM (footnote 2), read-out: CB2 receptor binding percent inhibition
# T1 sequence (P21554 whole entry): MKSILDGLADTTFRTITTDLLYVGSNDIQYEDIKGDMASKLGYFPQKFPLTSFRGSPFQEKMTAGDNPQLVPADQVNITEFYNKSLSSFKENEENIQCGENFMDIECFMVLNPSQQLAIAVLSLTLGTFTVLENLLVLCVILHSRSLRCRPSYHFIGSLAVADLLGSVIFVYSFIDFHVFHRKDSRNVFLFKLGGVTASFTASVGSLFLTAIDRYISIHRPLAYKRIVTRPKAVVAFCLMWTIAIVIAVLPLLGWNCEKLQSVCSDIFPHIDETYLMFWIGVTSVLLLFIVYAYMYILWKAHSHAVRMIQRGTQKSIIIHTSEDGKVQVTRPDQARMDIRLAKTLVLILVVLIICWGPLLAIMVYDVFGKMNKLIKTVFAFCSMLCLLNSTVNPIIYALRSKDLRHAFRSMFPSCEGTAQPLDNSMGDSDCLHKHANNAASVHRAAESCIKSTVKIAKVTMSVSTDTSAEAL
# T2 sequence (P34972 whole entry): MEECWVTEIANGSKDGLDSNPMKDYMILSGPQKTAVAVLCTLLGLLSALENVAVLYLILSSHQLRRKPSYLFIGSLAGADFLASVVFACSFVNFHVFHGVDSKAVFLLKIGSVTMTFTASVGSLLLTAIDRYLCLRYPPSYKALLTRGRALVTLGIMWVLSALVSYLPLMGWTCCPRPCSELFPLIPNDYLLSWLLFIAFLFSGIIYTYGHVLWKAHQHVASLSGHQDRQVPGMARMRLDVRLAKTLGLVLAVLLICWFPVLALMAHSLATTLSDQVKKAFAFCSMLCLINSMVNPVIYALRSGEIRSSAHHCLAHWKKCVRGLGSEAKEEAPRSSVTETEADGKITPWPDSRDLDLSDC
SMILES,inhibition at 0.2 µM (CB1 receptor; [1]) [%],inhibition at 0.2 µM (CB2 receptor; [2]) [%],other results
"O=C(N[C@@H](CO)c1ccccc1)c1nn(-c2nccc(C(F)(F)F)n2)c2c1CCCCC2Cc1cccc(Cl)c1 (stereo partly drawn) [Cpd 176, 8-(3-chloro-benzyl)-1-(4-trifluoromethyl-pyrimidin-2-yl)-1,4,5,6,7,8-hexahydro-cycloheptapyrazole-3-carboxylic acid [(1R)-2-hydroxy-1-phenyl-ethyl]-amide]",4,43,
"O=C(NN1CCCCC1)c1nn(Cc2ccccc2)c2c1CCCCC2c1ccccc1 (centres unmarked) [Cpd 68, 1-benzyl-8-phenyl-1,4,5,6,7,8-hexahydro-cycloheptapyrazole-3-carboxylic acid piperidin-1-ylamide]",,,"inhibition at 0.25 µM (CB1 receptor; read-out: CB1 receptor binding percent inhibition, test concentration 0.25 μM (footnote 8)): 0%; inhibition at 0.25 µM (CB2 receptor; read-out: CB2 receptor binding percent inhibition, test concentration 0.25 μM (footnote 8)): 27%"
"C[C@H](NC(=O)c1nn(C2CCCCC2)c2c1CCCCC2Cc1cccc(Cl)c1)c1ccccc1 (stereo partly drawn) [Cpd 7, 8-(3-chloro-benzyl)-1-cyclohexyl-1,4,5,6,7,8-hexahydro-cycloheptapyrazole-3-carboxylic acid [(1S)-1-phenyl-ethyl]-amide]",,,"IC50 (CB1 receptor; calculated by linear regression from percent inhibition at various test concentrations, read-out: Cannabinoid CB1 Receptor Binding IC50): 1100 nM; inhibition at 1 µM (CB1 receptor): 68%; CB2 receptor binding percent inhibition (CB2 receptor; test concentration not stated): 12%"
"O=C(NN1CCOCC1)c1nn(-c2cc(Cl)ccc2Cl)c2c1CCCC/C2=C\c1ccc(Cl)cc1 [Cpd 200, (8E)-8-(4-chloro-benzylidene)-1-(2,5-dichloro-phenyl)-1,4,5,6,7,8-hexahydro-cycloheptapyrazole-3-carboxylic acid morpholin-4-ylamide]",15,6,
"C[C@@H](NC(=O)c1nn(-c2ccncc2)c2c1CCCC/C2=C\c1ccc(Cl)cc1)c1ccccc1 [Cpd 170, (8E)-8-(4-chloro-benzylidene)-1-pyridin-4-yl-1,4,5,6,7,8-hexahydro-cycloheptapyrazole-3-carboxylic acid [(1R)-1-phenyl-ethyl]-amide]",29,27,
"O=C(N[C@H](CO)c1ccccc1)c1nn(-c2ccc(Cl)cc2Cl)c2c1CCCC[C@@H]2Cc1cccc(Cl)c1 [Cpd 161, (8R)-8-(3-chloro-benzyl)-1-(2,4-dichloro-phenyl)-1,4,5,6,7,8-hexahydro-cycloheptapyrazole-3-carboxylic acid [(1S)-2-hydroxy-1-phenyl-ethyl]-amide]",35,3,
"C[C@H](NC(=O)c1nn(C2CCCCC2)c2c1CCCCC2Cc1ccc(F)cc1)c1ccccc1 (stereo partly drawn) [Cpd 64, 1-cyclohexyl-8-(4-fluoro-benzyl)-1,4,5,6,7,8-hexahydro-cycloheptapyrazole-3-carboxylic acid [(1S)-1-phenyl-ethyl]-amide]",,,"inhibition at 1 µM (CB1 receptor): 51%; IC50 (CB2 receptor; calculated by linear regression from percent inhibition at various test concentrations, read-out: Cannabinoid CB2 Receptor Binding IC50): 600 nM; inhibition at 1 µM (CB2 receptor; test concentration 1 μM (footnote 1), read-out: CB2 receptor binding percent inhibition): 70%"
"O=C(c1n[nH]c2c1CCCC/C2=C\c1ccc(Cl)cc1)N1CCCCC1 [Cpd 223, (8E)-[8-(4-chloro-benzylidene)-1,4,5,6,7,8-hexahydro-cycloheptapyrazol-3-yl]-piperidin-1-yl-methanone]",40,58,
"CC(C)[C@@H](CO)NC(=O)c1nn(-c2ccc(Cl)cc2Cl)c2c1CCCC[C@H]2Cc1cccc(Cl)c1 [Cpd 159, (8S)-8-(3-chloro-benzyl)-1-(2,4-dichloro-phenyl)-1,4,5,6,7,8-hexahydro-cycloheptapyrazole-3-carboxylic acid [(1S)-1-hydroxymethyl-2-methyl-propyl]-amide]",40,3,
"O=C(N[C@@H](CO)Cc1ccccc1)c1nn(-c2nccc(C(F)(F)F)n2)c2c1CCCCC2Cc1cccc(Cl)c1 (stereo partly drawn) [Cpd 186, 8-(3-chloro-benzyl)-1-(4-trifluoromethyl-pyrimidin-2-yl)-1,4,5,6,7,8-hexahydro-cycloheptapyrazole-3-carboxylic acid [(1R)-1-benzyl-2-hydroxy-ethyl]-amide]",12,58,
"C[C@H](NC(=O)c1n[nH]c2c1CCCC/C2=C\c1ccc(Cl)cc1)c1ccccc1 [Cpd 141, (8E)-8-(4-chloro-benzylidene)-1,4,5,6,7,8-hexahydro-cycloheptapyrazole-3-carboxylic acid [(1S)-1-phenyl-ethyl]-amide]",,,"IC50 (CB1 receptor; Cannabinoid CB1 Receptor Binding IC50, calculated by linear regression from percent inhibition at various test concentrations): 6 nM; inhibition at 0.2 µM (CB1 receptor; read-out: CB1 receptor binding percent inhibition): 95%; CB2 receptor binding percent inhibition (CB2 receptor; test concentration 0.2 μM (footnote 2)): ^(2)97%"
"C[C@H](NC(=O)c1nn(-c2ccncc2)c2c1CCCC/C2=C\c1ccc(Cl)cc1)c1ccccc1 [Cpd 171, (8E)-8-(4-chloro-benzylidene)-1-pyridin-4-yl-1,4,5,6,7,8-hexahydro-cycloheptapyrazole-3-carboxylic acid [(1S)-1-phenyl-ethyl]-amide]",2,38,
"C[C@@H](NC(=O)c1nn(-c2cc(Cl)ccc2Cl)c2c1CCCC/C2=C\c1ccc(Cl)cc1)C1CCCCC1 [Cpd 196, (8E)-8-(4-chloro-benzylidene)-1-(2,5-dichloro-phenyl)-1,4,5,6,7,8-hexahydro-cycloheptapyrazole-3-carboxylic acid [(1R)-1-cyclohexyl-ethyl]-amide]",67,,"inhibition at 0.2 µM (CB2 receptor; read-out: CB2 receptor binding percent inhibition, test concentration 0.2 μM (footnote 2)): 49%"
"C[C@H](NC(=O)c1nn(C2CCCCC2)c2c1CCCCC2Cc1ccc(Cl)cc1)c1ccccc1 (stereo partly drawn) [Cpd 5, 8-(4-chloro-benzyl)-1-cyclohexyl-1,4,5,6,7,8-hexahydro-cycloheptapyrazole-3-carboxylic acid [(1S)-1-phenyl-ethyl]-amide]",,,inhibition at 1 µM (CB1 receptor): 22%; CB2 receptor binding percent inhibition (CB2 receptor; test concentration not stated): 34%
"C[C@@H](NC(=O)c1nn(-c2nccc(C(F)(F)F)n2)c2c1CCCCC2Cc1cccc(Cl)c1)c1ccccc1 (stereo partly drawn) [Cpd 175, 8-(3-chloro-benzyl)-1-(4-trifluoromethyl-pyrimidin-2-yl)-1,4,5,6,7,8-hexahydro-cycloheptapyrazole-3-carboxylic acid [(1R)-1-phenyl-ethyl]-amide]",30,36,
"Cn1nc(C(=O)n2ccnc2)c2c1/C(=C/c1cccc(F)c1)CCCC2 [Cpd 243, (8E)-[8-(3-fluoro-benzylidene)-1-methyl-1,4,5,6,7,8-hexahydro-cycloheptapyrazol-3-yl]-imidazol-1-yl-methanone]",0,0,
"O=C(NC12CC3CC(CC(C3)C1)C2)c1nn(C2CCCCC2)c2c1CCCCC2Cc1ccccc1Cl (centres unmarked) [Cpd 21, 8-(2-chloro-benzyl)-1-cyclohexyl-1,4,5,6,7,8-hexahydro-cycloheptapyrazole-3-carboxylic acid adamantan-1-ylamide]",,,inhibition at 1 µM (CB1 receptor): 32%; CB2 receptor binding percent inhibition (CB2 receptor; test concentration not stated): 26%
"CC12CCC(C1)C(C)(C)[C@H]2NC(=O)c1nn(C2CCCCC2)c2c1CCCCC2Cc1ccc(Cl)cc1 (stereo partly drawn) [Cpd 2, 8-(4-chloro-benzyl)-1-cyclohexyl-1,4,5,6,7,8-hexahydro-cycloheptapyrazole-3-carboxylic acid [(2S)-1,3,3-trimethyl-bicyclo[2.2.1]hept-2-yl]-amide]",,,inhibition at 1 µM (CB1 receptor): 21%; CB2 receptor binding percent inhibition (CB2 receptor; test concentration not stated): 53%
"O=C(NC1CCC1)c1nn(-c2ccc(Cl)cc2Cl)c2c1CCCCC2Cc1cccc(Cl)c1 (centres unmarked) [Cpd 24, 8-(3-chloro-benzyl)-1-(2,4-dichloro-phenyl)-1,4,5,6,7,8-hexahydro-cycloheptapyrazole-3-carboxylic acid cyclobutylamide]",,,inhibition at 1 µM (CB1 receptor): 28%; CB2 receptor binding percent inhibition (CB2 receptor; test concentration not stated): 0%
"O=C(NN1CCOCC1)c1nn(-c2ccccc2Cl)c2c1CCCC/C2=C\c1ccc(Cl)cc1 [Cpd 194, (8E)-8-(4-chloro-benzylidene)-1-(2-chloro-phenyl)-1,4,5,6,7,8-hexahydro-cycloheptapyrazole-3-carboxylic acid morpholin-4-ylamide]",19,10,
"COc1ccc(/C=C2\CCCCc3c(C(=O)N[C@@H]4CCC[C@H]4O)nn(-c4ccc(Cl)cc4Cl)c32)cc1 [Cpd 221, (8E)-1-(2,4-dichloro-phenyl)-8-(4-methoxy-benzylidene)-1,4,5,6,7,8-hexahydro-cycloheptapyrazole-3-carboxylic acid [(1R,2R)-2-hydroxy-cyclopentyl)-amide]",,24,
